Assay: xn = mol fraction of the nth substance listed
Details: 101 kPa

CCCC[N+](C)(C)C.O=S(=O)([N-]S(=O)(=O)C(F)(F)F)C(F)(F)F + CC(O)C(C)O
x2 = 0
Details	viscosity [mPa·s]
323.15 K	35.6
333.15 K	25.7
338.15 K	22.1
343.15 K	19.2

CCCC[N+](C)(C)C.O=S(=O)([N-]S(=O)(=O)C(F)(F)F)C(F)(F)F + CC(O)CO
viscosity [mPa·s]
Details	x2 = 0	x2 = 0.132	x2 = 0.1909	x2 = 0.3054	x2 = 0.5274	x2 = 0.7262	x2 = 0.8149	x2 = 0.8843
323.15 K	–	25.2	22.8	19.6	15.85	14.66	12.95	–
328.15 K	30	21.4	–	16.72	13.36	12.33	10.63	9.67
333.15 K	25.7	18.4	16.53	–	11.41	10.46	8.85	8.04
338.15 K	–	15.98	14.01	–	–	8.91	–	6.68
343.15 K	–	13.99	12.36	10.89	8.6	7.59	6.35	5.62
348.15 K	–	12.65	–	9.89	–	6.68	–	4.96
353.15 K	15.63	11.91	10.8	9.3	7.51	6.1	–	4.62

C[N+](C)(C)CCO.O=S(=O)([N-]S(=O)(=O)C(F)(F)F)C(F)(F)F + CC(O)CO
viscosity [mPa·s]
Details	313.15 K	318.15 K	323.15 K	328.15 K	333.15 K	338.15 K	343.15 K	348.15 K	353.15 K
x2 = 0	–	46.8	39.3	33.4	–	–	21.6	–	16.9
x2 = 0.2189	37.3	31.1	26.2	22.3	19.2	16.54	–	12.98	11.55
x2 = 0.3834	31.1	26.2	21.7	18.6	15.87	13.73	–	10.65	9.42
x2 = 0.4786	–	–	19.8	16.76	14.37	12.63	10.88	9.6	8.48
x2 = 0.5867	26.7	21.9	18.2	–	13.15	11.34	9.88	8.68	7.67
x2 = 0.7668	22	17.9	14.79	12.4	10.52	9.01	7.78	6.77	5.91
x2 = 0.8744	19.7	15.95	13.08	10.84	9.12	7.72	–	5.69	4.91

CCCC[N+](C)(C)C.O=S(=O)([N-]S(=O)(=O)C(F)(F)F)C(F)(F)F + CCC(O)CO
viscosity [mPa·s]
Details	323.15 K	328.15 K	333.15 K	338.15 K	343.15 K	348.15 K	353.15 K
x2 = 0	35.6	–	25.7	22.1	19.2	16.81	15.63
x2 = 0.2291	22.5	19.1	16.35	–	–	10.93	10.09
x2 = 0.3543	19.1	16.13	13.78	–	10.4	9.13	8.39
x2 = 0.5116	16.9	14.18	12.01	10.29	8.9	7.77	–
x2 = 0.6289	–	13.27	11.03	9.35	8.1	–	6.33
x2 = 0.8622	13.55	10.93	8.96	7.44	6.26	5.32	–
x2 = 0.9031	13.23	10.7	8.68	7.12	5.98	5.19	4.58

CC(O)C(C)O (configuration not stated) + CCCC[N+](C)(C)C.O=S(=O)([N-]S(=O)(=O)C(F)(F)F)C(F)(F)F
viscosity [mPa·s]
Details	x1 = 0.0879	x1 = 0.3137	x1 = 0.4515	x1 = 0.557	x1 = 0.6216	x1 = 0.8142	x1 = 1
323.15 K	28.8	20.9	18.2	–	–	15.29	17
328.15 K	24.4	17.7	15.32	–	13.26	12.34	13.13
333.15 K	20.9	–	–	–	11.09	10.19	10.34
338.15 K	18.1	13.22	11.32	10	9.39	8.53	8.27
343.15 K	15.83	11.16	9.89	8.68	8.03	7.33	–

CC(O)CO (configuration not stated) + CCCC[N+](C)(C)C.O=S(=O)([N-]S(=O)(=O)C(F)(F)F)C(F)(F)F
x1 = 1
Details	viscosity [mPa·s]
323.15 K	12.2
328.15 K	9.85
333.15 K	8
338.15 K	6.41
343.15 K	5.27
348.15 K	4.54

CCC(O)CO (configuration not stated) + CCCC[N+](C)(C)C.O=S(=O)([N-]S(=O)(=O)C(F)(F)F)C(F)(F)F
x1 = 1
Details	viscosity [mPa·s]
323.15 K	12.85
333.15 K	8.33
338.15 K	6.83
343.15 K	5.65
348.15 K	4.75
353.15 K	4.03

CC(O)CO (configuration not stated) + C[N+](C)(C)CCO.O=S(=O)([N-]S(=O)(=O)C(F)(F)F)C(F)(F)F
x1 = 1
Details	viscosity [mPa·s]
313.15 K	19.1
318.15 K	15.17
323.15 K	12.2
328.15 K	9.85
333.15 K	8
338.15 K	6.4
343.15 K	5.27
348.15 K	4.5
353.15 K	3.78

OCCCCCO + C[N+](C)(C)CCO.O=S(=O)([N-]S(=O)(=O)C(F)(F)F)C(F)(F)F
x1 = 1
Details	viscosity [mPa·s]
313.15 K	45.6
318.15 K	36.9
323.15 K	29.8
328.15 K	24.5
338.15 K	16.84
343.15 K	14.44

OCCCO + C[N+](C)(C)CCO.O=S(=O)([N-]S(=O)(=O)C(F)(F)F)C(F)(F)F
x1 = 1
Details	viscosity [mPa·s]
313.15 K	20.3
318.15 K	16.88
323.15 K	14.16
328.15 K	12.01
333.15 K	10.24
343.15 K	7.47
348.15 K	6.62
353.15 K	5.8

C[N+](C)(C)CCO.O=S(=O)([N-]S(=O)(=O)C(F)(F)F)C(F)(F)F + OCCCCCO
viscosity [mPa·s]
Details	x2 = 0	x2 = 0.1351	x2 = 0.2149	x2 = 0.4145	x2 = 0.5087	x2 = 0.6847	x2 = 0.7858	x2 = 0.9071
313.15 K	56.4	49.5	45.2	38.4	37	36.8	37.8	40.8
318.15 K	46.8	40.8	–	31.4	30.2	29.7	30.3	32.9
323.15 K	–	34.2	–	26.1	24.9	24.3	24.7	26.8
328.15 K	33.4	28.9	–	22	20.9	20.2	20.2	22
333.15 K	28.6	24.7	–	18.7	17.7	17	16.86	18.3
338.15 K	24.6	21.3	19.5	–	15.17	14.44	14.12	15.4
343.15 K	21.6	18.6	17	13.98	13.08	–	11.92	12.99

C[N+](C)(C)CCO.O=S(=O)([N-]S(=O)(=O)C(F)(F)F)C(F)(F)F + OCCCO
viscosity [mPa·s]
Details	313.15 K	318.15 K	323.15 K	328.15 K	333.15 K	338.15 K	343.15 K	348.15 K	353.15 K
x2 = 0	56.4	–	39.3	–	28.6	24.6	21.6	–	16.9
x2 = 0.1272	–	39.1	32.8	27.9	–	20.8	18.1	16	14.19
x2 = 0.2297	39.8	33.1	27.9	23.8	–	–	–	13.8	12.29
x2 = 0.4106	–	25.1	21.2	18.1	15.6	13.62	11.96	10.58	9.49
x2 = 0.5712	–	20.8	17.5	14.95	12.87	11.18	9.79	–	7.65
x2 = 0.6946	22.2	18.4	15.47	13.14	–	–	8.51	7.46	6.58
x2 = 0.8367	20.4	16.91	–	–	10.27	8.86	7.74	6.78	–
x2 = 0.9474	19.5	16.22	13.62	11.54	9.86	–	7.36	6.39	5.57

From a compilation of properties of binary mixtures (doi:10.1021/jp5065243)
